Reference: article PMC8694152, “Mutasynthetic Production and Antimicrobial Characterization of Darobactin Analogs” (Microbiology Spectrum, 2021)
Converted amounts (≈) assume the structure as drawn. “And” between values parts separate entries of the source, which are not always exact repeats. Equal entries are not always repeated.

Experiments:
[1] = test system: Escherichia coli ATCC 35218; type: cell-based; settings: CAMHII, 18 h, at least 85 % growth inhibition
Procedure: (§1) For details, see the supplemental material.
(§2) 146 Mueller Hinton 2 broth (CAMHII). Darobactins were screened in 12 concentrations
(§3) The same concentrations were tested for
(§4) 148 rifampicin, tetracycline and gentamycin as positive controls. For tetracycline resistant
(§5) 151 Bacteria suspension without supplemented standard antibiotics or Darobactin
(§6) 152 was used as negative control.
(§7) 154 spectrophotometer at 600 nm. […]
(§8) 171 control. After 24 h incubation, the MIC was determined. All MIC assays were
(§9) 172 performed at least in triplicate.

[2] = test system: Acinetobacter baumannii ATCC 19606; type: cell-based; settings: CAMHII, 18 h, at least 85 % growth inhibition
Procedure: as §1, §2, §3, §4, §5, §6, §7, §8, §9

[3] = test system: Salmonella enterica ATCC 13076; type: cell-based; settings: CAMHII, 18 h, at least 85 % growth inhibition
Procedure: as §1, §2, §3, §4, §5, §6, §7, §8, §9

various E. coli strains = assay: MIC comparison with DAR A against E. coli strains; type: cell-based, Escherichia coli
Excerpt: New antibiotics, such as darobactin, with potency against these pathogens are desperately needed. […] This can be explained by the fact that this is the only derivative investigated not ending with the amino acid phenylalanine, which represents the most frequent amino acid of known and putative β signals from bacterial OM proteins ([7]). Therefore, DAR F would not block the β signal binding site and, thus, would not inhibit the function of BamA. […] Since Ser2 should eliminate the side chain interactions existing between Asn2 and Lys808 and Asn427 of the BamA β1 strand, it is likely that this greatly reduces DAR E’s affinity for the target and, thus, reduces its potency. In contrast to DAR A, DAR D carries an arginine in position 5 instead of lysine. If DAR A is bound to BamA, the Lys5 side chain points away from BamA, thereby enabling interaction with the negatively charged phosphate groups of phosphatidylglycerol and cardiolipin lipids ([7]). Supposedly, arginine could act similarly in the place of lysine, as arginine attracts more phosphate than lysine in membranes and can form more hydrogen bonds with phosphate clusters than lysine ([16]). Arginine is also capable of cardiolipin binding, a further important aspect of DAR and BamA binding ([17]).
as §1
146 Mueller Hinton 2 broth (CAMHII). Darobactins were screened in 12 concentrations […]

[4] = test system: panel of clinically relevant Gram-negative pathogens; assay: MIC comparison with DAR A over the panel of test strains; type: cell-based; settings: whole panel of test strains (Table 2)
Procedure: Therefore, additional clinical isolates of A. baumannii were tested.
as §1, §2, §3, §4, §5, §6
154 spectrophotometer at 600 nm. The MIC was defined as the minimum concentration
157 dilution as well, but without shaking. In aerobic conditions, overnight cultures of K.
Exponential cultures (OD 600 of
163 of test compound solutions diluted serially two-fold. After overnight incubation at 37 °C,
The MIC against Salmonella
167 conditions. Overnight cultures grown in brain–heart infusion (BHI) broth,
as §8, §9

[5] = test system: Klebsiella pneumoniae DSM30104; type: cell-based; settings: CAMHII, 18 h, at least 85 % growth inhibition
Procedure: as §1, §2, §3, §4, §5, §6, §7, §9

E. coli NRZ14408 = type: cell-based, Escherichia coli; settings: CAMHII, 18 h, at least 85 % growth inhibition
Procedure: as §1, §2, §3, §4, §5, §6, §7, §8, §9

E. coli MMGI1 = type: cell-based, Escherichia coli; settings: CAMHII, 18 h, at least 85 % growth inhibition
Procedure: as §1, §2, §3, §4, §5, §6, §7, §8, §9

E. coli K0416 = type: cell-based, Escherichia coli; settings: CAMHII, 18 h, at least 85 % growth inhibition
Procedure: as §1, §2, §3, §4, §5, §6, §7, §8, §9

E. coli Survcare052 = type: cell-based, Escherichia coli; settings: CAMHII, 18 h, at least 85 % growth inhibition
Procedure: as §1, §2, §3, §4, §5, §6, §7, §8, §9

| SMILES | MIC [1] [µg/mL] | MIC [2] [µg/mL] | MIC [3] [µg/mL] | fold decrease in potency compared to DAR A (various E. coli strains) | fold-higher MIC values than DAR A [4] | MIC [5] [µg/mL] | MIC (E. coli NRZ14408) [µg/mL] | MIC (E. coli MMGI1) [µg/mL] | MIC (E. coli K0416) [µg/mL] | MIC (E. coli Survcare052) [µg/mL] |
| --- | --- | --- | --- | --- | --- | --- | --- | --- | --- | --- |
| NCCCC1c2ccc3c(c[nH]c3c2)C2Oc3cccc4c(c[nH]c34)C[C@H](N)C(=O)N[C@@H](CO)C(=O)N[C@@H]2C(=O)N[C@@H](CO)C(=O)N[C@@H]1C(=O)N[C@@H](CO)C(=O)N[C@@H](Cc1ccccc1)C(=O)O (stereo partly shown) [DAR E, darobactin E] | 32 (≈ 34.1 µM) | >64 | 32 (≈ 34.1 µM) | 8- to 16 fold | 8- to 16 fold | 32 (≈ 34.1 µM) | 32 (≈ 34.1 µM) | 32 (≈ 34.1 µM) | 32 (≈ 34.1 µM) | 64 (≈ 68.2 µM) |
| N=C(N)NCCC1c2ccc3c(c[nH]c3c2)C2Oc3cccc4c(c[nH]c34)C[C@H](N)C(=O)N[C@@H](CC(N)=O)C(=O)N[C@@H]2C(=O)N[C@@H](CO)C(=O)N[C@@H]1C(=O)N[C@@H](CO)C(=O)N[C@@H](Cc1ccccc1)C(=O)O (stereo partly shown) [DAR D, darobactin D] | 64 (≈ 64.4 µM) | >64 | 64 (≈ 64.4 µM) | – | 8- to 16 fold and 16 fold | 64 (≈ 64.4 µM) | 64 (≈ 64.4 µM) | 64 (≈ 64.4 µM) | 32 (≈ 32.2 µM) | >64 |
